Experimental data taken from US20090187040A1, “FENOFIBRIC ACID POLYMORPHS; METHODS OF MAKING; AND METHODS OF USE THEREOF” (priority 2008, published 2009).
One block for each compound: values may come before it.

How the values were obtained:
[1] = cited from earlier work
[2] = Fenofibric acid polymorph slurry study (form by XRPD or Raman); format: physicochemical; conditions: for relative thermodynamic stability of the enantiotropically related forms: Form A versus Form B, by temperature
Procedure: Approximately 30-45 mg in combination of Form B and Form A are weighed to an 8-mL vial outfitted with a stir bar. Solvent (water, toluene, and 1:1 water/IPA, DCM or MeCN) in the amount of 1 mL is added. The samples are sealed with a Teflon cap and parafilm and then placed on a magnetic stirrer at room temperature or 45° C. An aliquot is then sampled after 7 days and 21 days for determination of form by XRPD or Raman (Table 7).

[3] = Grinding study of Form B in a ball mill (XRPD); format: physicochemical; conditions: ground for 30 seconds using a ball mill
Procedure: Approximately 50 mg of Form B is ground for 30 seconds using a ball mill and the resulting material is analyzed by XRPD.

[4] = Solubility in water; format: physicochemical; conditions: noted in lyophilization example

Structure (SMILES): CC(C)OC(=O)C(C)(C)Oc1ccc(C(=O)c2ccc(Cl)cc2)cc1 [Fenofibrate, 2-[4-(4-chlorobenzoyl)phenoxy]-2-methyl-propanoic acid, 1-methylethyl ester]
effect on high-density lipoprotein (HDL) and apoproteins apoAI and apoAII ([1]; treatment with fenofibrate): results in increases

Structure (SMILES): CC(C)(Oc1ccc(C(=O)c2ccc(Cl)cc2)cc1)C(=O)O [Fenofibric acid, 2-[4-(4-chlorobenzoyl)phenoxy]-2-methyl-propanoic acid]
effect on total cholesterol, LDL cholesterol, apolipoprotein B, total triglycerides and triglyceride rich lipoprotein (VLDL) ([1]; treated patients): produces reductions

Now from value to compound, other results behind:

Form, 21 Days (XRPD/Raman) ([2]; slurry in Toluene 1 mL, 45 °C): A + B
Form, 7 Days (XRPD/Raman) ([2]; slurry in Water 1 mL, RT): A + B
Structure (SMILES): CC(C)(Oc1ccc(C(=O)c2ccc(Cl)cc2)cc1)C(=O)O [Form A + B, 2-[4-(4-chlorobenzoyl)phenoxy]-2-methyl-propanoic acid]

form observed after grinding (XRPD) [3]: Form A is observed
Form, 7 Days (XRPD/Raman) ([2]; slurry in DCM 1 mL, 45 °C): A + B
Form, 21 Days (XRPD/Raman) ([2]; slurry in DCM 1 mL, 45 °C): A + B
Structure (SMILES): CC(C)(Oc1ccc(C(=O)c2ccc(Cl)cc2)cc1)C(=O)O [Form B, 2-[4-(4-chlorobenzoyl)phenoxy]-2-methyl-propanoic acid]
relative thermodynamic stability of the enantiotropically related forms [2]: more thermodynamically stable at lower temperatures (e.g., room temperature)

solubility in water [4]: limited solubility
Form, 7 Days (XRPD/Raman) ([2]; slurry in DCM 1 mL, 45 °C): A + B
Form, 21 Days (XRPD/Raman) ([2]; slurry in DCM 1 mL, 45 °C): A + B
Form, 21 Days (XRPD/Raman) ([2]; slurry in Water 1 mL, RT): Diffuse
Structure (SMILES): CC(C)(Oc1ccc(C(=O)c2ccc(Cl)cc2)cc1)C(=O)O [Form A, 2-[4-(4-chlorobenzoyl)phenoxy]-2-methyl-propanoic acid]
relative thermodynamic stability of the enantiotropically related forms [2]: more stable at elevated temperatures (e.g., above about 45° C.)
